Among the data in patent US20210221866A1, “PROTEASE-RESISTANT LIPIDATED GLP-1 ANALOGS” (MEDIMMUNE LIMITED, priority 2015, published 2021) are EC50 values, retold here.

Common to all, as to type: cell-based
Assay [1] deals with T1, human glucose-dependent insulinotropic peptide receptor (GIPR) (Homo sapiens, UniProt P48546).
T1 construct: expressed in transfected cells; host or cells: HEK293 cells or CHO cells
T1 sequence (P48546 22-466): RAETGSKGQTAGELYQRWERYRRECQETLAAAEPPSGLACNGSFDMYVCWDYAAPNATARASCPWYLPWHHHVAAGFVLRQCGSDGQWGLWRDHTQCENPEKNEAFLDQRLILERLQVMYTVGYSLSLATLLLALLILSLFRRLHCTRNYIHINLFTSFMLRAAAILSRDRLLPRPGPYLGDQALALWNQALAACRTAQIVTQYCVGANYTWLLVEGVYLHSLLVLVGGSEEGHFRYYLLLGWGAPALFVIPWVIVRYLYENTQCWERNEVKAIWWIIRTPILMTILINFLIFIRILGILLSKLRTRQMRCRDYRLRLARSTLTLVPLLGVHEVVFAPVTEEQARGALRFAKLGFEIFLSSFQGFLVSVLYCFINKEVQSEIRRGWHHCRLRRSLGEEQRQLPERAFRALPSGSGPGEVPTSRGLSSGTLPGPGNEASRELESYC
As to the kind of experiment: cAMP assay, human GIPR cells. The following applies: read-out: Primary assay EC50 GIP-R. The method, then:
(§1) Sample dilutions are made in duplicate.
(§2) A frozen cryo-vial of cells expressing the receptor of interest is thawed rapidly in a water-bath, transferred to pre-warmed assay buffer and spun at 240×g for 5 minutes. Cells are re-suspended in assay buffer at a batch-dependent optimized concentration (e.g. hGCGR cells at 2×10^5 cells/ml, hGLP-1R and hGIPR cells at 1×10^5 cells/ml).
(§3) To this, 5 μL cell suspension is added and the plates incubated at room temperature for 30 minutes.
(§4) cAMP levels are measured using a commercially available cAMP dynamic 2 HTRF kit (Cisbio, Cat #62AM4PEJ), following the two step protocol as per manufacturer's recommendations. In brief; anti-cAMP cryptate (donor fluorophore) and cAMP-d2 (acceptor fluorophore) are made up separately by diluting each 1/20 in conjugate & lysis buffer provided in the kit. 5 μL anti-cAMP cryptate is added to wells of the assay plate, and 5 μL cAMP-d2 is added to wells except non-specific binding (NSB) wells, to which conjugate and lysis buffer are added. […] EC50 values of the synthetic peptides determined in cAMP assays are then determined.
(§5) Data is transformed to % Delta F as described in the manufacturer's guidelines and analyzed by 4-parameter logistic fit to determine EC50 values. […] To compare the balance of activities at the GLP-1R and GCGR between different peptides and across different conditions, these can be correlated, where the EC50's are related to those of comparator peptides.
For orientation: cAMP levels reflect the balance of adenylyl cyclase and phosphodiesterase activity.

For assay [2], the target named is T2, human glucagon receptor (GCGR) (Homo sapiens, UniProt P47871).
T2 construct: expressed in transfected cells; host or cells: HEK293 cells or CHO cells
As to the kind of experiment: cAMP assay, human GCGR cells. The following applies: read-out: Primary assay EC50 Gluc-R. The method, then:
as §1, §2, §3, §4, §5

The target in assay [3] is T3, human GLP-1 receptor (GLP-1R) (Homo sapiens, UniProt P43220).
T3 construct: expressed in transfected cells; host or cells: HEK293 cells or CHO cells
As to the kind of experiment: cAMP assay, human GLP-1R cells. In a few lines:
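Peptide-stimulated cAMP measured by two-step HTRF after a 30 min room-temperature incubation with receptor-expressing cells (hGLP-1R, hGIPR at 1×10^5 cells/ml; hGCGR at 2×10^5 cells/ml). Duplicate dilutions; EC50 from 4-parameter logistic fit of % Delta F.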

[4] abbreviates: mean of n1 and n2, read-out: Mean pM GLP-1R.
The mark [5] stands for this setting: replicate n1, read-out: Primary assay EC50 GLP-1R n1.
Where [6] appears, read: replicate n2, read-out: Primary assay EC50 GLP-1R n2.
[7] abbreviates: cAMP activity, first determination (n1).
Setting [8] is: cAMP activity, second determination (n2).
Setting [9] is: cAMP activity, first determination (n1), read-out: Primary assay EC50 GLP-1R n1.
[10] abbreviates: cAMP activity, mean of n1 and n2, read-out: Mean pM GLP-1R.
Where [11] appears, read: cAMP activity, second determination (n2), read-out: Primary assay EC50 GLP-1R n2.

Like-named read-outs stand apart in the source and are kept apart here. Numbered stars: 1 amine (or outer) side, 2 acyl side, 3 side chain; on linkers, the order of the positions; unused ones are H or OH. Square brackets hold non-standard residues; d marks the D form. Side chains are listed from the residue outwards. Peptide text beside a SMILES is read from it. * marks the point of attachment. C18 diacid = O=C(O)CCCCCCCCCCCCCCCCC(=O)*; γGlu = O=C(O)[C@H](CCC(=O)[*:2])N[*:1]; αMeF = C[C@](N)(Cc1ccccc1)C(=O)O; αMeK = C[C@](N)(CCCCN)C(=O)O; αMeS = C[C@](N)(CO)C(=O)O; AEEA = NCCOCCOCC(=O)O; Aib = CC(C)(N)C(=O)O

T2 sequence (P47871 26-477): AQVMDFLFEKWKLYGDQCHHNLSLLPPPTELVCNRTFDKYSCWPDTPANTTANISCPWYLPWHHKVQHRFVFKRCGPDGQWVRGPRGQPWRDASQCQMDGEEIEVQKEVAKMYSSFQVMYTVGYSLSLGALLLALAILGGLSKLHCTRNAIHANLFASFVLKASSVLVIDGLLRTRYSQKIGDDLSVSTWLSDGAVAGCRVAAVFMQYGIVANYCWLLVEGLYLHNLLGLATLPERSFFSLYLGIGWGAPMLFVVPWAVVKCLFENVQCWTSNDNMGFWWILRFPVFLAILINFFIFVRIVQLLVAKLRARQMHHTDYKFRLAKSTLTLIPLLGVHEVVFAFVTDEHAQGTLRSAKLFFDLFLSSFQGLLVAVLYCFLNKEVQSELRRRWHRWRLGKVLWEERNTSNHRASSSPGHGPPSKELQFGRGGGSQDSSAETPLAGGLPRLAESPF
T3 sequence (P43220 24-463): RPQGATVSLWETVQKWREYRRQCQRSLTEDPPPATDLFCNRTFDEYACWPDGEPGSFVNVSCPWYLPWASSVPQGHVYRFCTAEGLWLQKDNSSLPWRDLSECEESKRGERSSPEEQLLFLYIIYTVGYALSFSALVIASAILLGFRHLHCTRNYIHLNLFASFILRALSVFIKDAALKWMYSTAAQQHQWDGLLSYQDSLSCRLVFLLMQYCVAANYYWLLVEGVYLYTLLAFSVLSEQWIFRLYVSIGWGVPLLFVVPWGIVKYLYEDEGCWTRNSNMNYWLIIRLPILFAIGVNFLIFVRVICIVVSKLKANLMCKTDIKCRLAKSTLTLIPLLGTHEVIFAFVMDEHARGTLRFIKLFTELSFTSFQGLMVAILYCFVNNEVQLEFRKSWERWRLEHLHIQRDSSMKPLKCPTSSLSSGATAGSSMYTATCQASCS

As for `CC[C@H](C)[C@H](NC(=O)[C@](C)(Cc1ccccc1)NC(=O)[C@H](CCC(=O)O)NC(=O)[C@](C)(CCCCN)NC(=O)[C@H](C)NC(=O)[C@H](C)NC(=O)[C@H](CCC(=O)O)NC(=O)CNC(=O)[C@H](CCC(=O)O)NC(=O)[C@H](CC(C)C)NC(=O)[C@](C)(Cc1ccccc1)NC(=O)[C@H](CO)NC(=O)[C@](C)(CO)NC(=O)[C@@H](NC(=O)[C@H](CC(=O)O)NC(=O)[C@H](CO)NC(=O)[C@@H](NC(=O)[C@](C)(Cc1ccccc1)NC(=O)[C@H](CO)NC(=O)CNC(=O)[C@H](CCC(=O)O)NC(=O)C(C)(C)NC(=O)[C@@H](N)Cc1c[nH]cn1)[C@@H](C)O)C(C)C)C(=O)N[C@@H](C)C(=O)N[C@@](C)(Cc1ccccc1)C(=O)N[C@H](C(=O)N[C@H](C(=O)N[C@@H](CCCCNC(=O)CCCCCNC(=O)CCCCCNC(=O)CCCCCNC(=O)CCCCCCCCCCCCCCCCC(=O)O)C(=O)NCC(=O)NCC(N)=O)C(C)C)C(C)C` [compound 196], the EC50 is no less than 26 nM in assay [1] (first replicate); no less than 26 nM in assay [1] (second replicate (n2)); no less than 26 nM in assay [2] (second replicate (n2)); 125 pM in assay [3] (setting [4]); 190 pM in assay [3] (setting [5]); 63 pM in assay [3] (setting [6]).

Regarding `CC[C@H](C)[C@H](NC(=O)[C@](C)(Cc1ccccc1)NC(=O)[C@H](CCC(=O)O)NC(=O)[C@](C)(CCCCN)NC(=O)[C@H](C)NC(=O)[C@H](C)NC(=O)[C@H](CCC(=O)O)NC(=O)CNC(=O)[C@H](CCC(=O)O)NC(=O)[C@H](CC(C)C)NC(=O)[C@](C)(Cc1ccccc1)NC(=O)[C@H](CO)NC(=O)[C@](C)(CO)NC(=O)[C@@H](NC(=O)[C@H](CC(=O)O)NC(=O)[C@H](CO)NC(=O)[C@@H](NC(=O)[C@](C)(Cc1ccccc1)NC(=O)[C@H](CO)NC(=O)CNC(=O)[C@H](CCC(=O)O)NC(=O)C(C)(C)NC(=O)[C@@H](N)Cc1c[nH]cn1)[C@@H](C)O)C(C)C)C(=O)N[C@@H](C)C(=O)N[C@@](C)(Cc1ccccc1)C(=O)N[C@H](C(=O)N[C@H](C(=O)N[C@@H](CCCCNC(=O)COCCOCCNC(=O)CCCCCCCCCCCCCCCCC(=O)O)C(=O)NCC(=O)NCC(N)=O)C(C)C)C(C)C` [compound 197], the EC50 was no less than 27 nM in assay [1] (first replicate); no less than 27 nM in assay [1] (second replicate (n2)); no less than 27 nM in assay [2] (second replicate (n2)); 79 pM in assay [3] (setting [4]); 120 pM in assay [3] (setting [5]); 34 pM in assay [3] (setting [6]).

As to `CC(C)C[C@H](NC(=O)[C@](C)(Cc1ccccc1)NC(=O)[C@H](CO)NC(=O)[C@](C)(CO)NC(=O)[C@@H](NC(=O)[C@H](CC(=O)O)NC(=O)[C@H](CO)NC(=O)[C@@H](NC(=O)[C@](C)(Cc1ccccc1)NC(=O)[C@H](CO)NC(=O)CNC(=O)[C@H](CCC(=O)O)NC(=O)C(C)(C)NC(=O)[C@@H](N)Cc1c[nH]cn1)[C@@H](C)O)C(C)C)C(=O)N[C@@H](CCC(=O)O)C(=O)NCC(=O)N[C@@H](CCC(=O)O)C(=O)N[C@@H](C)C(=O)N[C@@H](C)C(=O)N[C@@](C)(CCCCN)C(=O)N[C@@H](CCC(=O)O)C(=O)N[C@@](C)(Cc1ccccc1)C(=O)N[C@@H](CCCCNC(=O)COCCOCCNC(=O)COCCOCCNC(=O)CC[C@H](NC(=O)CCCCCCCCCCCCCCCCC(=O)O)C(=O)O)C(=O)N[C@@H](C)C(=O)N[C@@](C)(Cc1ccccc1)C(=O)N[C@H](C(=O)N[C@H](C(=O)N[C@@](C)(CCCCN)C(=O)NCC(=O)NCC(N)=O)C(C)C)C(C)C` [compound 106] (H-H[Aib]EGS[αMeF]TSDV[αMeS]S[αMeF]LEGEAA[αMeK]E[αMeF]K([AEEA-AEEA-γGlu-C18 diacid])A[αMeF]VV[αMeK]GG-NH2), the EC50 in assay [1] (setting [7]) is no less than 25 nM; in assay [1] (setting [8]), no less than 25.3 nM; in assay [2] (setting [8]), no less than 25.3 nM; in assay [3] (setting [9]), 6500 pM; in assay [3] (setting [10]) it was 6140 pM; in assay [3] (setting [11]), 5790 pM.

For the compound `CCCCCCCCCCCCCCCCCC(=O)NCCOCCOCC(=O)NCCCC[C@H](NC(=O)[C@@H](NC(=O)[C@@H](NC(=O)[C@](C)(Cc1ccccc1)NC(=O)[C@H](C)NC(=O)[C@@H](NC(=O)[C@](C)(Cc1ccccc1)NC(=O)[C@H](CCC(=O)O)NC(=O)[C@](C)(CCCCN)NC(=O)[C@H](C)NC(=O)[C@H](C)NC(=O)[C@H](CCC(=O)O)NC(=O)CNC(=O)[C@H](CCC(=O)O)NC(=O)[C@H](CC(C)C)NC(=O)[C@](C)(Cc1ccccc1)NC(=O)[C@H](CO)NC(=O)[C@](C)(CO)NC(=O)[C@@H](NC(=O)[C@H](CC(=O)O)NC(=O)[C@H](CO)NC(=O)[C@@H](NC(=O)[C@](C)(Cc1ccccc1)NC(=O)[C@H](CO)NC(=O)CNC(=O)[C@H](CCC(=O)O)NC(=O)C(C)(C)NC(=O)[C@@H](N)Cc1c[nH]cn1)[C@@H](C)O)C(C)C)[C@@H](C)CC)C(C)C)C(C)C)C(=O)NCC(=O)NCC(N)=O` [compound 188], the EC50 in assay [1] (setting [7]) was no less than 28 nM; in assay [1] (setting [8]) it was no less than 28 nM; in assay [2] (setting [8]), no less than 28 nM; in assay [3] (setting [9]), 170 pM; in assay [3] (setting [10]), 125 pM; in assay [3] (setting [11]) it was 77 pM.

On to `CC[C@H](C)[C@H](NC(=O)[C@](C)(Cc1ccccc1)NC(=O)[C@H](CCC(=O)O)NC(=O)[C@](C)(CCCCN)NC(=O)[C@H](C)NC(=O)[C@H](C)NC(=O)[C@H](CCC(=O)O)NC(=O)CNC(=O)[C@H](CCC(=O)O)NC(=O)[C@H](CC(C)C)NC(=O)[C@](C)(Cc1ccccc1)NC(=O)[C@H](CO)NC(=O)[C@H](CCCCNC(=O)COCCOCCNC(=O)COCCOCCNC(=O)CC[C@H](NC(=O)CCCCCCCCCCCCCCCCC(=O)O)C(=O)O)NC(=O)[C@@H](NC(=O)[C@H](CC(=O)O)NC(=O)[C@H](CO)NC(=O)[C@@H](NC(=O)[C@](C)(Cc1ccccc1)NC(=O)[C@H](CO)NC(=O)CNC(=O)[C@H](CCC(=O)O)NC(=O)C(C)(C)NC(=O)[C@@H](N)Cc1c[nH]cn1)[C@@H](C)O)C(C)C)C(=O)N[C@@H](C)C(=O)N[C@@](C)(Cc1ccccc1)C(=O)N[C@H](C(=O)N[C@H](C(=O)N[C@@](C)(CCCCN)C(=O)NCC(=O)NCC(N)=O)C(C)C)C(C)C` [compound 118], for which the EC50 in assay [1] (setting [7]) is no less than 25 nM; in assay [1] (setting [8]), no less than 25.2 nM; in assay [2] (setting [8]), no less than 25.2 nM; in assay [3] (setting [9]) it was 810 pM; in assay [3] (setting [10]), 783 pM; in assay [3] (setting [11]), 758 pM.

For `CC[C@H](C)[C@H](NC(=O)[C@](C)(Cc1ccccc1)NC(=O)[C@H](CCC(=O)O)NC(=O)[C@](C)(CCCCN)NC(=O)[C@H](C)NC(=O)[C@H](C)NC(=O)[C@H](CCC(=O)O)NC(=O)CNC(=O)[C@H](CCC(=O)O)NC(=O)[C@H](CC(C)C)NC(=O)[C@](C)(Cc1ccccc1)NC(=O)[C@H](CO)NC(=O)[C@](C)(CO)NC(=O)[C@@H](NC(=O)[C@H](CC(=O)O)NC(=O)[C@H](CCCCNC(=O)COCCOCCNC(=O)COCCOCCNC(=O)CC[C@H](NC(=O)CCCCCCCCCCCCCCCCC(=O)O)C(=O)O)NC(=O)[C@@H](NC(=O)[C@](C)(Cc1ccccc1)NC(=O)[C@H](CO)NC(=O)CNC(=O)[C@H](CCC(=O)O)NC(=O)C(C)(C)NC(=O)[C@@H](N)Cc1c[nH]cn1)[C@@H](C)O)C(C)C)C(=O)N[C@@H](C)C(=O)N[C@@](C)(Cc1ccccc1)C(=O)N[C@H](C(=O)N[C@H](C(=O)N[C@@](C)(CCCCN)C(=O)NCC(=O)NCC(N)=O)C(C)C)C(C)C` [compound 121] (H-H[Aib]EGS[αMeF]TK([AEEA-AEEA-γGlu-C18 diacid])DV[αMeS]S[αMeF]LEGEAA[αMeK]E[αMeF]IA[αMeF]VV[αMeK]GG-NH2; N-terminus assumed), the EC50 in assay [1] (setting [7]) was no less than 25 nM; in assay [1] (setting [8]), no less than 25.1 nM; in assay [2] (setting [8]) it was no less than 25.1 nM; in assay [3] (setting [9]), no less than 25000 pM; in assay [3] (setting [10]), no less than 25100 pM; in assay [3] (setting [11]), no less than 25100 pM.
